Experimental data as given in BindingDB's records for doi:10.1073/pnas.0609757104 (University of Central Florida College of Medicine, 2007).

Target: T1, Signal transducer and activator of transcription 1-alpha/beta (Homo sapiens, UniProt P42224)
T1 sequence (P42224 whole entry): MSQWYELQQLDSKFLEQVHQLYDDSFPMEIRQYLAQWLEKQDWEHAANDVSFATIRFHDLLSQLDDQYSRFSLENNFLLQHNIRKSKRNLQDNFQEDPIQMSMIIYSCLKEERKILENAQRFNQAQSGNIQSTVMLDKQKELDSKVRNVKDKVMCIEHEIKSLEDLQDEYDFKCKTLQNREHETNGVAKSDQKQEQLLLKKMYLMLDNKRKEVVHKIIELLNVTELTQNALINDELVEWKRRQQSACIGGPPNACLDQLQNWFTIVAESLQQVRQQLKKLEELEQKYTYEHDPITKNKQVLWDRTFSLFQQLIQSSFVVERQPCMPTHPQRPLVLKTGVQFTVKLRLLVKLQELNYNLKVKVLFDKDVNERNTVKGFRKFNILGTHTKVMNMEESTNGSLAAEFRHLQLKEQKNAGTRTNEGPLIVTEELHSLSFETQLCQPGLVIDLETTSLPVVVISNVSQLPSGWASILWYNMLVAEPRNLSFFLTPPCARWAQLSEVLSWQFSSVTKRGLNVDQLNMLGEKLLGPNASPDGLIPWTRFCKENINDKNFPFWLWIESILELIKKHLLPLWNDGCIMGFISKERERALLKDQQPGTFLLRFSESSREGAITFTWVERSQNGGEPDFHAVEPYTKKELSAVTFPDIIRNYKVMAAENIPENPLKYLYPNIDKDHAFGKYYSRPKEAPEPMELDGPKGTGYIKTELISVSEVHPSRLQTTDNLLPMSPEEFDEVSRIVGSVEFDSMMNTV
Test: Electrophoretic Mobility Shift Assay (EMSA)
Details: pH 7.8; 22 °C
Description: STAT proteins were expressed in Sf9 cells from a baculovirus encoding the recombinant protein. A nuclear extract of the Sf9 cells was incubated with 32P-labeled high affinity c-fos sis inducible element (hSIE) either alone or in the presence of inhibitor. After incubation, samples were electrophoresed on polyacrylamide gels. The gels were dried, exposed to a phosphorimager screen and scanned. IC50 values were derived from plots of spot intensity versus phosphopeptide concentration. The affinity of peptides to the SH2 domain is measured by the intensity of the radioactivity of the Stat-DNA complex band in the electrophoresis gel.

IC50: > 300 µM
SMILES: Cc1ccc(S(=O)(=O)OCC(=O)Nc2ccc(C(=O)O)c(O)c2)cc1 [2-hydroxy-4-(2-{[(4-methylbenzene)sulfonyl]oxy}acetamido)benzoic acid]
